Consider one compound from ChEMBL document CHEMBL4765476, “MCC950, a NLRP3 inhibitor, ameliorates lipopolysaccharide-induced lung inflammation in mice” (Bioorg Med Chem, 2021).

For experiment [1], the system named is Mus musculus. The experiment in a line: Antiinflammatory activity in ICR mouse assessed as reduction in LPS-induced IL-1beta expression in lungs at 0.5 mg/kg, INH administered 18 hrs before LPS-stimulation and measured after 24 hrs by Western blot analysis. The class given is functional, organism-based. Conditions: time 42.0 hrs. For orientation: A western blot detects proteins with antibodies after separation by electrophoresis.

In experiment [2] the test system is Mus musculus. Nature of the experiment: Antiinflammatory activity in ICR mouse assessed as reduction in LPS-induced IL-18 expression in serum at 0.5 mg/kg, INH administered 18 hrs before LPS-stimulation and measured after 24 hrs by ELISA. The class given is functional, organism-based. The following applies: time 42.0 hrs. Background: In an ELISA, binding on a coated surface is turned into a signal by an enzyme label.

Experiment [3] deals with Mus musculus. Nature of the experiment: Antiinflammatory activity in ICR mouse assessed as reduction in LPS-induced IL-1beta mRNA expression in lungs at 0.5 mg/kg, INH administered 18 hrs before LPS-stimulation and measured after 24 hrs by qRT-PCR analysis. The class given is functional, organism-based. Conditions: time 42.0 hrs. Background: In qPCR the cycle at which signal appears reflects the starting amount.

The test system of experiment [4] is Mus musculus. Nature of the experiment: Antiinflammatory activity in ICR mouse assessed as reduction in LPS-induced TGF-beta1 mRNA expression in lungs at 0.5 mg/kg, ip administered 18 hrs before LPS-stimulation and measured after 24 hrs by qRT-PCR analysis. The class given is functional, organism-based. Conditions: time 42.0 hrs.
Experiment [5] has as its system Mus musculus. Nature of the experiment: Antiinflammatory activity in ICR mouse assessed as reduction in LPS-induced lymphocyte level in BALF at 0.5 mg/kg, ip administered 18 hrs before LPS-stimulation and measured after 24 hrs by FACS analysis relative to control. The class given is functional. Conditions: time 42 hrs.
The test system of experiment [6] is Mus musculus. Nature of the experiment: Antiinflammatory activity in ICR mouse assessed as reduction in LPS-induced TGF-beta1 mRNA expression in lungs at 0.5 mg/kg, INH administered 18 hrs before LPS-stimulation and measured after 24 hrs by qRT-PCR analysis. The class given is functional, organism-based. The following applies: time 42.0 hrs.
The subject of experiment [7] is Mus musculus. Nature of the experiment: Antiinflammatory activity in ICR mouse assessed as reduction in LPS-induced neutrophil level in BALF at 0.5 mg/kg, INH administered 18 hrs before LPS-stimulation and measured after 24 hrs by FACS analysis relative to control. The class given is functional. The following applies: time 42 hrs.
In experiment [8] the test system is Mus musculus. Nature of the experiment: Antiinflammatory activity in ICR mouse assessed as reduction in LPS-induced MMP-9 mRNA expression in lungs at 0.5 mg/kg, INH administered 18 hrs before LPS-stimulation and measured after 24 hrs by qRT-PCR analysis. In kind it is functional, organism-based. The following applies: time 42.0 hrs.
Experiment [9] concerns Mus musculus. The experiment in a line: Antiinflammatory activity in ICR mouse assessed as reduction in LPS-induced IL-1beta expression in serum at 0.5 mg/kg, INH administered 18 hrs before LPS-stimulation and measured after 24 hrs by ELISA. The class given is functional, organism-based. The following applies: time 42.0 hrs.
Experiment [10] deals with Mus musculus. The experiment in a line: Antiinflammatory activity in ICR mouse assessed as reduction in LPS-induced neutrophil level in BALF at 0.5 mg/kg, ip administered 18 hrs before LPS-stimulation and measured after 24 hrs by FACS analysis relative to control. In kind it is functional. Conditions: time 42 hrs.
For experiment [11], the system named is Mus musculus. Nature of the experiment: Antiinflammatory activity in ICR mouse assessed as reduction in LPS-induced IL-1beta expression in serum at 0.5 mg/kg, ip administered 18 hrs before LPS-stimulation and measured after 24 hrs by ELISA. The class given is functional, organism-based. The following applies: time 42.0 hrs.
Experiment [12] concerns Mus musculus. The experiment in a line: Antiinflammatory activity in ICR mouse assessed as reduction in LPS-induced IL-8 mRNA expression in lungs at 0.5 mg/kg, ip administered 18 hrs before LPS-stimulation and measured after 24 hrs by qRT-PCR analysis. The class given is functional, organism-based. Conditions: time 42.0 hrs.
The subject of experiment [13] is Mus musculus. Nature of the experiment: Antiinflammatory activity in ICR mouse assessed as reduction in LPS-induced IL-1beta mRNA expression in lungs at 0.5 mg/kg, ip administered 18 hrs before LPS-stimulation and measured after 24 hrs by qRT-PCR analysis. The class given is functional, organism-based. The following applies: time 42.0 hrs.
For experiment [14], the system named is Mus musculus. Nature of the experiment: Antiinflammatory activity in ICR mouse assessed as reduction in LPS-induced MMP-9 mRNA expression in lungs at 0.5 mg/kg, ip administered 18 hrs before LPS-stimulation and measured after 24 hrs by qRT-PCR analysis. The class given is functional, organism-based. The following applies: time 42.0 hrs.
The test system of experiment [15] is Mus musculus. The experiment in a line: Antiinflammatory activity in ICR mouse assessed as reduction in LPS-induced lymphocyte level in BALF at 0.5 mg/kg, INH administered 18 hrs before LPS-stimulation and measured after 24 hrs by FACS analysis relative to control. The following applies: time 42 hrs. The class given is functional.
The test system of experiment [16] is Mus musculus. Nature of the experiment: Antiinflammatory activity in ICR mouse assessed as reduction in LPS-induced macrophage level in BALF at 0.5 mg/kg, ip administered 18 hrs before LPS-stimulation and measured after 24 hrs by FACS analysis relative to control. The class given is functional. Conditions: time 42 hrs.
Experiment [17] deals with Mus musculus. Nature of the experiment: Antiinflammatory activity in ICR mouse assessed as reduction in LPS-induced macrophage level in BALF at 0.5 mg/kg, INH administered 18 hrs before LPS-stimulation and measured after 24 hrs by FACS analysis relative to control. The class given is functional. Conditions: time 42 hrs.
The test system of experiment [18] is Mus musculus. Nature of the experiment: Antiinflammatory activity in ICR mouse assessed as reduction in LPS-induced caspase-1 expression in lungs at 0.5 mg/kg, ip administered 18 hrs before LPS-stimulation and measured after 24 hrs by Western blot analysis. The class given is functional, organism-based. Conditions: time 42.0 hrs.
Experiment [19] has as its system Mus musculus. Nature of the experiment: Antiinflammatory activity in ICR mouse assessed as reduction in LPS-induced neutrophil infiltration in lungs at 0.5 mg/kg, INH administered 18 hrs before LPS-stimulation and measured after 24 hrs by H and E staining based imaging analysis relative to control. In kind it is functional. The following applies: time 42 hrs.
Experiment [20] concerns Mus musculus. Nature of the experiment: Antiinflammatory activity in ICR mouse assessed as reduction in LPS-induced IL-1beta expression in lungs at 0.5 mg/kg, ip administered 18 hrs before LPS-stimulation and measured after 24 hrs by Western blot analysis. The class given is functional, organism-based. The following applies: time 42.0 hrs.
The subject of experiment [21] is Mus musculus. The experiment in a line: Antiinflammatory activity in ICR mouse assessed as reduction in LPS-induced IL-18 expression in serum at 0.5 mg/kg, ip administered 18 hrs before LPS-stimulation and measured after 24 hrs by ELISA. The class given is functional, organism-based.
The test system of experiment [22] is Mus musculus. Nature of the experiment: Antiinflammatory activity in ICR mouse assessed as reduction in LPS-induced neutrophil infiltration in lungs at 0.5 mg/kg, ip administered 18 hrs before LPS-stimulation and measured after 24 hrs by H and E staining based imaging analysis relative to control. The class given is functional. Conditions: time 42 hrs.
In experiment [23] the test system is Mus musculus. Nature of the experiment: Antiinflammatory activity in ICR mouse assessed as reduction in LPS-induced caspase-1 expression in lungs at 0.5 mg/kg, INH administered 18 hrs before LPS-stimulation and measured after 24 hrs by Western blot analysis. In kind it is functional, organism-based. Conditions: time 42.0 hrs.
The test system of experiment [24] is Mus musculus. Nature of the experiment: Antiinflammatory activity in ICR mouse assessed as reduction in LPS-induced IL-8 mRNA expression in lungs at 0.5 mg/kg, INH administered 18 hrs before LPS-stimulation and measured after 24 hrs by qRT-PCR analysis. The following applies: time 42.0 hrs. In kind it is functional, organism-based.

Molecules are shown by their SMILES. Activity calls are given as the source filed them. No cut-off for these calls is given here.

In general, inhibition in vivo refers to the change of the read-out against control, counted positive when it falls. As to `C[C@@H]1C[C@H]2[C@@H]3CCC4=CC(=O)C=C[C@]4(C)[C@@]3(F)[C@@H](O)C[C@]2(C)[C@@]1(O)C(=O)CO` [DEXAMETHASONE], the inhibition result in the experiment with Mus musculus [1], in the experiment with Mus musculus [2], with Mus musculus [3], in the experiment with Mus musculus [4], with Mus musculus [6] and with Mus musculus [8] was “Active” in each case. Moreover, the inhibition entry in the experiment on Mus musculus [9], in the experiment with Mus musculus [11], with Mus musculus [12], in the experiment on Mus musculus [13], in the experiment on Mus musculus [14] and in the experiment with Mus musculus [18] was “Active” throughout. Besides, the inhibition result with Mus musculus [20], in the experiment with Mus musculus [21], with Mus musculus [23] and with Mus musculus [24] was “Active” in each case. In addition, the inhibition in vivo at 0.5 mg/kg is 46.1% in the experiment on Mus musculus [5]; 72.9% in the experiment with Mus musculus [7]; 66.9% with Mus musculus [10]; 30.6% in the experiment on Mus musculus [15]; 75.1% in the experiment on Mus musculus [16]; 40.9% in the experiment with Mus musculus [17]. In addition, the values for the inhibition in vivo at 0.5 mg/kg in the experiment on Mus musculus [19] and in the experiment on Mus musculus [22] were 55.9% and 58.7%, respectively.
